Source: ChEMBL document CHEMBL1124516, “Synthesis of 2,3-diaziridinyl-1,4-naphthoquinone sulfonate derivatives as potential antineoplastic agents” (1989)

Tests used:
[1] = system: L1210; assay: Percentage survival time of L1210 (murine leukemia) inoculated mice following 20 mg/kg i.p.; format: functional, Mus musculus; details: route intraperitoneal
[2] = system: Mus musculus; assay: Number of mice survived for a period greater than 50 days when a dose of 20 mg/Kg is administered intraperitoneally; tested in 5 mice; format: functional
[3] = system: Mus musculus; assay: Average change in weight in mice bearing the B16 Melanoma, when compound(50 mg/kg) was administered intraperitoneally beginning 24 hr after tumor implantation, daily once for 6 consecutive days.; format: functional
[4] = system: L1210; assay: Number L1210 (murine leukemia) inoculated mice surviving for >50 days following 25 mg/kg i.p.; format: functional, Mus musculus; details: route intraperitoneal
[5] = system: Mus musculus; assay: The ratio of the survival time of treated to control animals x 100 in mice bearing B16 Melanoma, when compound (50 mg/kg) was administered intraperitoneally; format: functional
[6] = system: Mus musculus; assay: Number of mice surviving for a period greater than 50 days when a dose of 30 mg/Kg is administered intraperitoneally; tested in 5 mice; format: functional
[7] = system: Mus musculus; assay: Average change in weight in mice bearing the L1210 Leukemia, when compound (25 mg/kg) was administered once daily beginning 24 hr after tumor implantation, for 6 consecutive days.; format: functional
[8] = system: Mus musculus; assay: Average change in weight in mice bearing the B16 Melanoma, when compound(100 mg/kg) was administered beginning 24 hr after tumor implantation, daily once for 6 consecutive days.; format: functional
[9] = system: Mus musculus; assay: Average change in weight in mice bearing the L1210 Leukemia, when compound (20 mg/kg) was administered once daily beginning 24 hr after tumor implantation, for 6 consecutive days.; format: functional
[10] = system: Mus musculus; assay: Average change in weight in mice bearing the B16 Melanoma, when compound(150 mg/kg) was administered beginning 24 hr after tumor implantation, daily once for 6 consecutive days.; format: functional
[11] = system: Mus musculus; assay: The ratio of the survival time of treated to control animals x 100 in mice bearing B16 Melanoma, when compound (150 mg/kg) was administered intraperitoneally; format: functional
[12] = system: Mus musculus; assay: The ratio of the survival time of treated to control animals x 100 in mice bearing B16 Melanoma, when compound (100 mg/kg) was administered intraperitoneally; format: functional
[13] = system: Mus musculus; assay: Average change in weight in mice bearing the L1210 Leukemia, when compound(30 mg/kg) was administered once daily beginning 24 hr after tumor implantation, for 6 consecutive days.; format: functional
[14] = system: L1210; assay: Percentage survival time of L1210 (murine leukemia) inoculated mice following 30 mg/kg i.p.; format: functional, Mus musculus; details: route intraperitoneal
[15] = system: L1210; assay: Percentage survival time of L1210 (murine leukemia) inoculated mice following 25 mg/kg i.p.; format: functional, Mus musculus; details: route intraperitoneal

SMILES	Activity [1]	Survivals [2]	Average body weight change [3]	Survivals [4]	Activity [5]	Survivals [6]	Average body weight change [7]	Average change in body weight [8]	Average change in body weight [9]	Average change in body weight [10]	Activity [11]	Activity [12]	Average change in body weight [13]	Activity [14]	Activity [15]
O=C1C(N2CC2)=C(N2CC2)C(=O)c2c(OS(=O)(=O)c3cccs3)cccc21	165	4	-10.8%	5	156	5	-4.7%	-18.2%	-2.3%	-22.7%	77	161	-6.4%	–	–
CCc1ccc(S(=O)(=O)Oc2cccc3c2C(=O)C(N2CC2)=C(N2CC2)C3=O)cc1	147	0	–	0	–	0	13.6%	–	8.4%	–	–	–	9.9%	172	151
O=C1C(N2CC2)=C(N2CC2)C(=O)c2c(OS(=O)(=O)c3cccc4ccccc34)cccc21	107	0	–	0	–	0	9.2%	–	14.6%	–	–	–	13.7%	104	104
CC1(C)C2CCC1(CS(=O)(=O)Oc1cccc3c1C(=O)C(N1CC1)=C(N1CC1)C3=O)C(=O)C2 (stereo not drawn)	136	0	–	0	–	0	-3.5%	–	-9.3%	–	–	–	-9.2%	168	148
O=C1C(N2CC2)=C(N2CC2)C(=O)c2c(OS(=O)(=O)Cc3ccccc3)cccc21	127	0	–	0	–	0	3.1%	–	2.4%	–	–	–	-3%	141	153
CCCCS(=O)(=O)Oc1cccc2c1C(=O)C(N1CC1)=C(N1CC1)C2=O	131	0	–	0	–	0	-10.9%	–	0.1%	–	–	–	-11.3%	131	124
O=C1C(N2CC2)=C(N2CC2)C(=O)c2c(OS(=O)(=O)c3ccc([N+](=O)[O-])cc3[N+](=O)[O-])cccc21	111	0	–	0	–	0	4.8%	–	2.3%	–	–	–	-1.3%	100	105
O=C1C(N2CC2)=C(N2CC2)C(=O)c2c(OS(=O)(=O)/C=C/c3ccccc3)cccc21	132	0	–	0	–	0	1.9%	–	-3.5%	–	–	–	-1%	150	130
CN(C)c1cccc2c(S(=O)(=O)Oc3cccc4c3C(=O)C(N3CC3)=C(N3CC3)C4=O)cccc12	110	0	–	0	–	0	3.8%	–	2.2%	–	–	–	3.9%	117	115
CC(C)(C)c1ccc(S(=O)(=O)Oc2cccc3c2C(=O)C(N2CC2)=C(N2CC2)C3=O)cc1	104	0	–	0	–	0	11.8%	–	12.8%	–	–	–	6.7%	98	98
O=C1C(N2CC2)=C(N2CC2)C(=O)c2c(OS(=O)(=O)c3ccc(I)cc3)cccc21	127	0	4.1%	0	132	0	11.1%	0.6%	14.6%	-4.1%	141	138	15.8%	146	146
CC(C)c1cc(C(C)C)c(S(=O)(=O)Oc2cccc3c2C(=O)C(N2CC2)=C(N2CC2)C3=O)c(C(C)C)c1	100	0	–	0	–	0	9%	–	7.8%	–	–	–	7.4%	100	102
Cc1cc(C)c(S(=O)(=O)Oc2cccc3c2C(=O)C(N2CC2)=C(N2CC2)C3=O)c(C)c1	113	0	–	0	–	0	-2.5%	–	-0.4%	–	–	–	-2.6%	124	113
CCCCCCCCCCCCCCCCS(=O)(=O)Oc1cccc2c1C(=O)C(N1CC1)=C(N1CC1)C2=O	96	0	–	0	–	0	9.9%	–	13%	–	–	–	9.7%	91	91
O=C1C(N2CC2)=C(N2CC2)C(=O)c2c(OS(=O)(=O)CCCCl)cccc21	123	0	–	0	–	0	-12.1%	–	-7.5%	–	–	–	-27.6%	150	145
O=C1C(N2CC2)=C(N2CC2)C(=O)c2c(OS(=O)(=O)c3ccc([N+](=O)[O-])cc3)cccc21	402	4	–	3	–	4	-12.9%	–	-11.1%	–	–	–	-13.1%	152	293
Cc1ccc(S(=O)(=O)Oc2cccc3c2C(=O)C=C(N2CC2)C3=O)cc1	102	0	–	0	–	0	5.1%	–	7.3%	–	–	–	1.2%	111	103
